In patent publication US11186571B2, “Quinazolinone derivatives useful for imaging” (LONDON HEALTH SCIENCES CENTRE RESEARCH INC., priority 2017, dated 2021):
“And” between values parts separate entries of the source, which are not always exact repeats. Identical values can stand only once. Like-named read-outs stand apart in the source and are kept apart here.

Columns and labels:
GHS-R1a [1] = molecular target: T1, GHS-R1a (Homo sapiens, UniProt Q92847); experiment: Radioligand binding assay, displacement of [125I-His9]ghrelin(1-28); conditions: for IC50: GHS-R1a transfected HEK293 cells, [125I-His9]ghrelin(1-28) radioligand, determined in applicant's lab; for binding affinity with GHS-R1a, stated in words: radioligand binding assay
T1 construct: expressed in transfected cells; host or cells: HEK293
Procedure: The affinity for GHS-R1a was determined using a radioligand binding assay. […] The resulting suspension was incubated for 20 min with shaking (550 rpm). […] All binding assays were performed in triplicate.

GHS-R1a [2] = molecular target: T1, GHS-R1a; conditions: cited from earlier work; for Ki: literature value, read-out: Ki values reported in the literature

T1 sequence (Q92847 whole entry): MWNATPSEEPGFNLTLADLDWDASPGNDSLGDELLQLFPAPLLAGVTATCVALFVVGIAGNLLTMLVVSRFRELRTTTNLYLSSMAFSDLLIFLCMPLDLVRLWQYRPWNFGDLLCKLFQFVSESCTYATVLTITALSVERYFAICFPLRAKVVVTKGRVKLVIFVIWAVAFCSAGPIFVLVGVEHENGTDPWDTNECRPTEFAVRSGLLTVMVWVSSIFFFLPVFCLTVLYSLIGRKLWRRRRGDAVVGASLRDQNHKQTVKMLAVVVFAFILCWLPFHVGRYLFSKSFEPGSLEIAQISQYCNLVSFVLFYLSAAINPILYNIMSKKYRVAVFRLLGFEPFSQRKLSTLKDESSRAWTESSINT

SMILES	IC50 (GHS-R1a [1])	further results
Cc1ccccc1-c1nc2ccc(Oc3ccc(F)cc3)cc2c(=O)n1C[C@H]1CCCNC1 [Compound 4a, (S)-6-(4-fluorophenoxy)-3-(piperidin-3-ylmethyl)-2-(o-tolyl)quinazolin-4(3H)-one, reference compound]	5.6 nM	Ki (GHS-R1a [2]): 0.9 nM
O=c1c2cc(Oc3ccc4ncsc4c3)ccc2nc(-c2ccccc2F)n1C[C@H]1CCCNC1 [Compound 9b, (S)-6-(benzo[d]thiazol-6-yloxy)-2-(2-fluorophenyl)-3-(piperidin-3-ylmethyl)quinazolin-4(3H)-one]	16 nM	–
CC(=O)N1CCN(c2ccc(Oc3ccc4nc(-c5ccccc5C)n(C[C@H]5CCCNC5)c(=O)c4c3)cc2)CC1 [Compound 4f, (S)-6-(4-(4-acetylpiperazin-1-yl)phenoxy)-3-(piperidin-3-ylmethyl)-2-(o-tolyl)quinazolin-4(3H)-one]	587 nM	–
Cc1ccccc1-c1nc2ccc(Oc3ccc(F)cc3)cc2c(=O)n1C[C@H]1CCCN(C(C)C)C1 [Compound 5f, (S)-6-(4-fluorophenoxy)-3-((1-isopropylpiperidin-3-yl)methyl)-2-(o-tolyl)quinazolin-4(3H)-one, reference compound]	3.7 nM	binding affinity with GHS-R1a, stated in words (GHS-R1a [1]): equivalent binding affinity with natural ghrelin; IC50 (GHS-R1a [2]; literature value (Bayer work), read-out: IC50 reported for prior art compound): 0.9 nM; Ki (GHS-R1a [2]): 0.9 nM
Cc1ccccc1-c1nc2ccc(Oc3ccc4ncsc4c3)cc2c(=O)n1C[C@H]1CCCN(C(C)C)C1 [Compound 5g, (S)-6-(benzo[d]thiazol-6-yloxy)-3-((1-isopropylpiperidin-3-yl)methyl)-2-(o-tolyl)quinazolin-4(3H)-one]	1.8 nM	binding affinity with GHS-R1a, stated in words (GHS-R1a [1]): equivalent binding affinity to natural ghrelin
O=c1c2cc(Oc3ccc(F)cn3)ccc2nc(-c2ccccc2F)n1C[C@H]1CCCNC1 [Compound 9a, (S)-2-(2-fluorophenyl)-6-((5-fluoropyridin-2-yl)oxy)-3-(piperidin-3-ylmethyl)quinazolin-4(3H)-one]	935 nM	–
Cc1ccccc1-c1nc2ccc(Oc3ccc(F)cn3)cc2c(=O)n1C[C@H]1CCCNC1 [Compound 4b, (S)-6-((5-fluoropyridin-2-yl)oxy)-3-(piperidin-3-ylmethyl)-2-(o-tolyl)quinazolin-4(3H)-one]	52 nM	–
Cc1ccccc1-c1nc2ccc(Oc3ccc(F)nc3)cc2c(=O)n1C[C@H]1CCCNC1 [Compound 4c, (S)-6-((6-fluoropyridin-3-yl)oxy)-3-(piperidin-3-ylmethyl)-2-(o-tolyl)quinazolin-4(3H)-one]	68.5 nM	–
Cc1ccccc1-c1nc2ccc(Oc3ccc(Oc4ccc(F)cn4)nc3)cc2c(=O)n1C[C@H]1CCCN(CCO)C1 [Compound 5d, (S)-6-((6-((5-fluoropyridin-2-yl)oxy)pyridin-3-yl)oxy)-3-((1-(2-hydroxyethyl)piperidin-3-yl)methyl)-2-(o-tolyl)quinazolin-4(3H)-one]	65.2 nM	–
Cc1ccccc1-c1nc2ccc(Oc3ccc(Oc4ccc(F)cn4)nc3)cc2c(=O)n1C[C@H]1CCCNC1 [Compound 4d, (S)-6-((6-((5-fluoropyridin-2-yl)oxy)pyridin-3-yl)oxy)-3-(piperidin-3-ylmethyl)-2-(o-tolyl)quinazolin-4(3H)-one]	82.9 nM	–
Cc1ccccc1-c1nc2ccc(Oc3ccc4ncsc4c3)cc2c(=O)n1C[C@H]1CCCN(CCF)C1 [Compound 5e, (S)-6-(benzo[d]thiazol-6-yloxy)-3-((1-(2-fluoroethyl)piperidin-3-yl)methyl)-2-(o-tolyl)quinazolin-4(3H)-one]	9.3 nM	–
Cc1ccccc1-c1nc2ccc(Oc3ccc4ncsc4c3)cc2c(=O)n1C[C@H]1CCCN(CCO)C1 [Compound 5i, (S)-6-(benzo[d]thiazol-6-yloxy)-3-((1-(2-hydroxyethyl)piperidin-3-yl)methyl)-2-(o-tolyl)quinazolin-4(3H)-one]	0.4 nM	binding affinity with GHS-R1a, stated in words (GHS-R1a [1]): sub-nanomolar binding affinity
Cc1ccccc1-c1nc2ccc(Oc3ccc(F)nc3)cc2c(=O)n1C[C@H]1CCCN(CCF)C1 [Compound 5c, (S)-3-((1-(2-fluoroethyl)piperidin-3-yl)methyl)-6-((6-fluoropyridin-3-yl)oxy)-2-(o-tolyl)quinazolin-4(3H)-one]	64.2 nM and 62.4 nM	–
Cc1ccccc1-c1nc2ccc(Oc3ccc4ncsc4c3)cc2c(=O)n1C[C@H]1CCCNC1 [Compound 4e, (S)-6-(benzo[d]thiazol-6-yloxy)-3-(piperidin-3-ylmethyl)-2-(o-tolyl)quinazolin-4(3H)-one]	5.3 nM	–
Cc1ccccc1-c1nc2ccc(Oc3ccc(F)cn3)cc2c(=O)n1C[C@H]1CCCN(C(=O)C(C)F)C1 (stereo partly drawn) [Compound 5j, 3-(((3S)-1-(2-fluoropropanoyl)piperidin-3-yl)methyl)-6-((5-fluoropyridin-2-yl)oxy)-2-(o-tolyl)quinazolin-4(3H)-one]	> 1000 nM	–
Cc1ccccc1-c1nc2ccc(Oc3ccc(F)cc3)cc2c(=O)n1C[C@H]1CCCN(CCF)C1 [Compound 5a, (S)-3-((1-(2-fluoroethyl)piperidin-3-yl)methyl)-6-(4-fluorophenoxy)-2-(o-tolyl)quinazolin-4(3H)-one]	29.5 nM	–
Cc1ccccc1-c1nc2ccc(Oc3ccc(F)cn3)cc2c(=O)n1C[C@H]1CCCN(CCF)C1 [Compound 5b, (S)-3-((1-(2-fluoroethyl)piperidin-3-yl)methyl)-6-((5-fluoropyridin-2-yl)oxy)-2-(o-tolyl)quinazolin-4(3H)-one]	20.6 nM	–

Continued, in another order:

IC50 (GHS-R1a [1])	SMILES	further results
0.02 nM	CC(C)N1CCC[C@H](Cn2c(-c3ccccc3F)nc3ccc(Oc4ccc5ncsc5c4)cc3c2=O)C1 [Compound 10b, (S)-6-(benzo[d]thiazol-6-yloxy)-2-(2-fluorophenyl)-3-((1-isopropylpiperidin-3-yl)methyl)quinazolin-4(3H)-one]	binding affinity with GHS-R1a, stated in words (GHS-R1a [1]): sub-nanomolar binding affinity
353 nM	O=c1c2cc(Oc3ccc(F)cn3)ccc2nc(-c2ccc(OCCO)cc2F)n1C[C@H]1CCCNC1 [Compound 14a, (S)-2-(2-fluoro-4-(2-hydroxyethoxy)phenyl)-6-((5-fluoropyridin-2-yl)oxy)-3-(piperidin-3-ylmethyl)quinazolin-4(3H)-one]	–
8.1 nM	O=c1c2cc(Oc3ccc4ncsc4c3)ccc2nc(-c2ccccc2F)n1C[C@H]1CCCN(CCF)C1 [Compound 10c, (S)-6-(benzo[d]thiazol-6-yloxy)-3-((1-(2-fluoroethyl)piperidin-3-yl)methyl)-2-(2-fluorophenyl)quinazolin-4(3H)-one]	–
3.8 nM	Cc1ccccc1-c1nc2ccc(C(=O)c3ccc(F)cc3)cc2c(=O)n1C[C@H]1CCCN(C(C)C)C1 [Compound 20, (S)-6-(4-fluorobenzoyl)-3-((1-isopropylpiperidin-3-yl)methyl)-2-(o-tolyl)quinazolin-4(3H)-one]	binding affinity with GHS-R1a, stated in words (GHS-R1a [1]): equivalent binding affinity to natural ghrelin
19.8 nM	O=c1c2cc(Oc3ccc(F)cc3)ccc2nc(-c2ccc(OCCO)cc2F)n1C[C@H]1CCCNC1 [Compound 14b, (S)-2-(2-fluoro-4-(2-hydroxyethoxy)phenyl)-6-(4-fluorophenoxy)-3-(piperidin-3-ylmethyl)quinazolin-4(3H)-one]	–
0.33 nM	CC(C)N1CCC[C@H](Cn2c(-c3ccc(OCCF)cc3F)nc3ccc(Oc4ccc(F)cc4)cc3c2=O)C1 [Compound 17b, (S)-2-(2-fluoro-4-(2-fluoroethoxy)phenyl)-6-(4-fluorophenoxy)-3-((1-isopropylpiperidin-3-yl)methyl)quinazolin-4(3H)-one]	binding affinity with GHS-R1a, stated in words (GHS-R1a [1]): sub-nanomolar binding affinity
17.6 nM	CC(C)N1CCC[C@H](Cn2c(-c3ccc(OCCF)cc3F)nc3ccc(Oc4ccc(F)cn4)cc3c2=O)C1 [Compound 17a, (S)-2-(2-fluoro-4-(2-fluoroethoxy)phenyl)-6-((5-fluoropyridin-2-yl)oxy)-3-((1-isopropylpiperidin-3-yl)methyl)quinazolin-4(3H)-one]	–
2.3 nM	CC(C)N1CCC[C@H](Cn2c(-c3ccc(OCCO)cc3F)nc3ccc(Oc4ccc(F)cc4)cc3c2=O)C1 [Compound 15b, (S)-2-(2-fluoro-4-(2-hydroxyethoxy)phenyl)-6-(4-fluorophenoxy)-3-((1-isopropylpiperidin-3-yl)methyl)quinazolin-4(3H)-one]	binding affinity with GHS-R1a, stated in words (GHS-R1a [1]): equivalent binding affinity to natural ghrelin
70.5 nM	CC(C)N1CCC[C@H](Cn2c(-c3ccccc3F)nc3ccc(Oc4ccc(F)cn4)cc3c2=O)C1 [Compound 10a, (S)-2-(2-fluorophenyl)-6-((5-fluoropyridin-2-yl)oxy)-3-((1-isopropylpiperidin-3-yl)methyl)quinazolin-4(3H)-one]	–
4 nM	Cc1ccccc1-c1nc2ccc(C(=O)c3ccc(F)cc3)cc2c(=O)n1C[C@H]1CCCNC1 [Compound 19, (S)-6-(4-fluorobenzoyl)-3-(piperidin-3-ylmethyl)-2-(o-tolyl)quinazolin-4(3H)-one]	–
40.1 nM	CC(C)N1CCC[C@H](Cn2c(-c3ccc(OCCO)cc3F)nc3ccc(Oc4ccc(F)cn4)cc3c2=O)C1 [Compound 15a, (S)-2-(2-fluoro-4-(2-hydroxyethoxy)phenyl)-6-((5-fluoropyridin-2-yl)oxy)-3-((1-isopropylpiperidin-3-yl)methyl)quinazolin-4(3H)-one]	–
